Measured values taken from ChEMBL document CHEMBL3044741, “Synthesis of novel biologically active methylene derivatives of sydnones” (Med Chem Res, 2013).
In brackets after ≈: the same amount, converted by molar mass.

Columns and labels:
[1] = Selectivity index, ratio of CC50 for human MT4 cells to IC50 for HIV2 ROD; type: functional
[2] = Cytotoxicity against human MT4 cells by MTT assay; type: cell-based
[3] = Selectivity index, ratio of CC50 for human MT4 cells to IC50 for HIV1 3B; type: functional
[4] = test system: Human immunodeficiency virus 2; test: Antiviral activity against HIV2 ROD infected in MT4 cells assessed as inhibition of virus-induced cytopathogenicity by MTT assay; type: functional, organism-based; conditions: Human immunodeficiency virus 2, ISOLATE ROD
Human alphaherpesvirus 3 [5] = test: Antiviral activity against thymidine kinase-deficient Varicella-zoster virus infected in HEL cells assessed as reduction in plaque formation; type: functional, organism-based; conditions: Human alphaherpesvirus 3, HEL
[6] = test system: Human immunodeficiency virus 1; test: Antiviral activity against HIV1 3B infected in MT4 cells assessed as inhibition of virus-induced cytopathogenicity by MTT assay; type: functional, organism-based; conditions: Human immunodeficiency virus 1, 3B
Human alphaherpesvirus 3 [7] = test: Antiviral activity against Varicella-zoster virus Oka expressing thymidine kinase infected in HEL cells assessed as reduction in plaque formation; type: functional, organism-based; conditions: Human alphaherpesvirus 3, strain Oka vaccine
[8] = Cytotoxicity against human HEL cells; type: cell-based
Cytomegalovirus [9] = test: Antiviral activity against Cytomegalovirus Davis in HEL cells assessed as reduction in plaque formation; type: functional, organism-based; conditions: Human betaherpesvirus 5, Davis
[10] = Cytotoxicity against human HEL cells assessed as alteration in cell morphology; type: cell-based
Cytomegalovirus [11] = test: Antiviral activity against Cytomegalovirus AD-169 infected in HEL cells assessed as reduction in plaque formation; type: functional, organism-based; conditions: Human betaherpesvirus 5, AD-169, HEL
Aspergillus niger [12] = test: Antifungal activity against Aspergillus niger MTCC 282; type: functional
Aspergillus clavatus [13] = test: Antifungal activity against Aspergillus clavatus MTCC 1323; type: functional
Candida albicans [14] = test: Antifungal activity against Candida albicans MTCC 227; type: functional
Aspergillus niger [15] = test: Antifungal activity against Aspergillus niger MTCC 282 at 250 ug/ml after 74 hrs by Kirby-Bauer method; type: functional; conditions: MTCC 282, 74 h, read-out: IZ
Aspergillus clavatus [16] = test: Antifungal activity against Aspergillus clavatus MTCC 1323 at 250 ug/ml after 74 hrs by Kirby-Bauer method; type: functional; conditions: MTCC 1323, 74 h, read-out: IZ
Candida albicans [17] = test: Antifungal activity against Candida albicans MTCC 227 at 250 ug/ml after 74 hrs by Kirby-Bauer method; type: functional; conditions: MTCC 227, 74 h, read-out: IZ
Pseudomonas aeruginosa [18] = test: Antibacterial activity against Pseudomonas aeruginosa MTCC 424 after 24 hrs by broth dilution method; type: functional; conditions: MTCC 424, 24 h
Streptococcus pyogenes [19] = test: Antibacterial activity against Streptococcus pyogenes MTCC 442 after 24 hrs by broth dilution method; type: functional; conditions: MTCC 442, 24 h
Escherichia coli [20] = test: Antibacterial activity against Escherichia coli MTCC 443 after 24 hrs by broth dilution method; type: functional; conditions: MTCC 443, 24 h
Staphylococcus aureus [21] = test: Antibacterial activity against Staphylococcus aureus MTCC 96 after 24 hrs by broth dilution method; type: functional; conditions: MTCC 96, 24 h
Pseudomonas aeruginosa [22] = test: Antibacterial activity against Pseudomonas aeruginosa MTCC 424 at 250 ug/ml after 24 hrs by Kirby-Bauer method; type: functional; conditions: MTCC 424, 24 h, read-out: IZ
Escherichia coli [23] = test: Antibacterial activity against Escherichia coli MTCC 443 at 250 ug/ml after 24 hrs by Kirby-Bauer method; type: functional; conditions: MTCC 443, 24 h, read-out: IZ
Streptococcus pyogenes [24] = test: Antibacterial activity against Streptococcus pyogenes MTCC 442 at 250 ug/ml after 24 hrs by Kirby-Bauer method; type: functional; conditions: MTCC 442, 24 h, read-out: IZ
Staphylococcus aureus [25] = test: Antibacterial activity against Staphylococcus aureus MTCC 96 at 250 ug/ml after 24 hrs by Kirby-Bauer method; type: functional; conditions: MTCC 96, 24 h, read-out: IZ

Structure (SMILES): Cc1ccc(-[n+]2noc([O-])c2CN2CCN(c3cccc(Cl)c3Cl)CC2)cc1
- Ratio CC50/IC50 [1]: <1
- CC50 [2]: 31.7 µg/mL (≈ 75.6 µM)
- Ratio CC50/IC50 [3]: <1
- IC50 [4]: > 31.7 µg/mL
- EC50 (Human alphaherpesvirus 3 [5]): > 4 µg/mL
- IC50 [6]: > 31.7 µg/mL
- EC50 (Human alphaherpesvirus 3 [7]): > 4 µg/mL
- CC50 [8]: 28.8 µg/mL (≈ 68.7 µM)
- EC50 (Cytomegalovirus [9]): > 4 µg/mL
- MCC [10]: 20 µg/mL
- EC50 (Cytomegalovirus [11]): 4 µg/mL (≈ 9.54 µM)
- MIC (Aspergillus niger [12]): 500 µg/mL (≈ 1190 µM)
- MIC (Aspergillus clavatus [13]): 250 µg/mL (≈ 596 µM)
- MIC (Candida albicans [14]): 250 µg/mL (≈ 596 µM)
- zone of inhibition at 250 µg/mL (Aspergillus niger [15]): 21 mm
- zone of inhibition at 250 µg/mL (Aspergillus clavatus [16]): 23 mm
- zone of inhibition at 250 µg/mL (Candida albicans [17]): 18 mm
- MIC (Pseudomonas aeruginosa [18]): 1000 µg/mL (≈ 2380 µM)
- MIC (Streptococcus pyogenes [19]): 200 µg/mL (≈ 477 µM)
- MIC (Escherichia coli [20]): 125 µg/mL (≈ 298 µM)
- MIC (Staphylococcus aureus [21]): 500 µg/mL (≈ 1190 µM)
- zone of inhibition at 250 µg/mL (Pseudomonas aeruginosa [22]): 16 mm
- zone of inhibition at 250 µg/mL (Escherichia coli [23]): 21 mm
- zone of inhibition at 250 µg/mL (Streptococcus pyogenes [24]): 19 mm
- zone of inhibition at 250 µg/mL (Staphylococcus aureus [25]): 17 mm
